The values below come from article PMC10210221, “Interaction of Pexiganan (MSI-78)-Derived Analogues Reduces Inflammation and TLR4-Mediated Cytokine Secretion: A Comparative Study” (ACS Omega, 2023).

For one data set, the system named is S. Typhi ATCC 14028s. It is filed as cell-based, Salmonella Typhi. The conditions noted are these: ATCC 14028, 18 h. The procedure: (§1) The peptide’s minimal inhibitory concentration (MIC) was examined as previously described.[44] In brief, sterile 96-well U-bottom polystyrene plates were used to evaluate peptide activity. Bacterial cells including S. Typhi ATCC 14028s, E. coli ATCC 35218, S. aureus ATCC P8538, and Lactobacilli ATCC 25258 were cultured in Mueller Hinton broth (MHB) at 37 °C overnight. The cells were then washed, centrifuged, and re-suspended in MHB medium. Afterward, 50 μL aliquots of suspended bacteria (1 × 10^6 colony forming units, CFU mL^–1) were added to 50 μL BM2 medium, which contained peptides in serial twofold dilutions. The plates were then incubated at 37 °C for 18 h. The inhibition of growth was determined by measuring the absorbance at 600 nm using a microplate autoreader. The MIC was defined as the concentration at which 90% growth inhibition was observed after 18 h of incubation.

The next data set deals with S. aureus ATCC P8538. It is filed as cell-based, Staphylococcus aureus. The conditions noted are these: ATCC P8538, 18 h. The procedure:
as §1

Another data set relates to E. coli ATCC 35218. Format: cell-based, Escherichia coli. The conditions noted are these: ATCC 35218, 18 h. As for the experimental part: as §1
For the next data set, the system named is pig erythrocytes. It is filed as cell-based. The conditions noted are these: pH 7.3. The procedure:
To examine the hemolytic properties of the peptides, a concentration of 100 μM was used. A 4% suspension of pig erythrocytes, freshly collected and washed three times in phosphate-buffered saline (PBS, pH 7.3), was used for this purpose. After incubation at 37 °C for 1 h, the suspension was centrifuged at 800g for 10 min, and the absorbance at 540 nm was measured. Complete hemolysis was determined by adding 1% Triton X-100, while adding only PBS was used to determine 0% hemolysis.The hemolysis calculation was as follows: % hemolysis = (ODPeptide – ODBuffer)/(ODTriton1% – ODBuffer) × 100.

In a further data set the test system is Lactobacilli ATCC 25258. It is filed as cell-based. The conditions noted are these: ATCC 25258, 18 h. The procedure:
as §1

Another data set relates to RAW 264.7 cells. Briefly: XTT cytotoxicity / LD50 calculation. The settings on record: XTT, RAW 264.7 macrophages. Format: cell-based, murine. The procedure:
(§2) LD50 is the calculated amount of chemical that causes the death of 50% of the population tested, in this case, RAW 264.7. Each well was seeded with 1 × 10^5 cells 1 day before the experiment. Peptides were added in several doses and incubated with the cells for 2 h, followed by 2 h of XTT. We performed a linear graph and calculated the concentration in which 50% were dead.
(§3) DMEM supplemented with low endotoxin FBS (10%), L-glutamine (1%), sodium pyruvate (1%), pen–strep (1%), and unessential amino acids (1%) was used to grow RAW 264.7 cells at 37 °C in a humidified atmosphere containing 5% CO2 and 95% air. A 96-well Falcon plate was utilized for the assay, with each well containing 1 × 10^5 cells in a 200 μL medium, cultured overnight and washed with phosphate-buffered saline (PBS) before the experiment. Peptides were added to the wells at various concentrations for 2 h, followed by XTT with fresh medium for another 2 h. The optical density was measured at 450 nm using an enzyme-linked immunosorbent assay plate reader, and cell viability was determined relative to the control.

Data set [1] is described as follows: XTT cytotoxicity / LD50 calculation. The conditions noted are these: mouse, RAW 264.7 cells (macrophages); peptides 2 h, then XTT 2 h; concentration at which 50% of cells were dead, from linear graph. Format: cell-based, murine. The procedure:
as §2, §3

Converted amounts (≈) assume the structure as drawn. Where a SMILES comes first, the peptide text is derived from it. Where no end group is shown, it is not given here. [ ]: non-standard residue; d: D form.

With KKKKKKKGIGFLAFGAFVKILK-NH2 [MSI-N7K], in the data set on S. Typhi ATCC 14028s, the “MIC S. Typhi ATCC 14028s” value is 25 µM. Also, the “MIC S. aureus ATCC P8538” value against S. aureus ATCC P8538 amounted to 25 µM. In the data set with E. coli ATCC 35218, the “MIC E. coli ATCC 35218” value was 25 µM. In addition, the “% hemolysis (100 μM)” value in the data set on pig erythrocytes turned out to be 10 ± 5.6%. In addition, the “MIC Lactobacilli ATCC 25258” value against Lactobacilli ATCC 25258 was 25 µM. Moreover, in the data set on RAW 264.7 cells, the “Concentration toxic to RAW 264.7 cells” value is 60 µM. In addition, the CC50 at 2 h in data set [1] is 60.9 µM.

For the compound “KKKKKFIGLFAGGIVLAFKKKK-NH2 [MSI-Seg-Scr]”, the “MIC S. Typhi ATCC 14028s” value with S. Typhi ATCC 14028s amounted to 25 µM. Further, in the data set with S. aureus ATCC P8538, the “MIC S. aureus ATCC P8538” value is 12.5 µM. Moreover, in the data set on E. coli ATCC 35218, the “MIC E. coli ATCC 35218” value amounted to 12.5 µM. Besides, the “% hemolysis (100 μM)” value in the data set on pig erythrocytes came to 3.9 ± 1.4%. Moreover, the “MIC Lactobacilli ATCC 25258” value with Lactobacilli ATCC 25258 came to 12.5 µM. Also, the CC50 at 2 h in data set [1] is > 100 µM.

As to “KKKKKGIGGLAGGAFVILKKKK-NH2 [MSI-Seg-F2G]”, the “MIC S. Typhi ATCC 14028s” value against S. Typhi ATCC 14028s was >50 µM. In addition, in the data set with S. aureus ATCC P8538, the “MIC S. aureus ATCC P8538” value amounted to 25 µM. The “MIC E. coli ATCC 35218” value against E. coli ATCC 35218 was >50 µM. Besides, in the data set with pig erythrocytes, the “% hemolysis (100 μM)” value is 1.2 ± 30.2%. Also, the “MIC Lactobacilli ATCC 25258” value against Lactobacilli ATCC 25258 is >50 µM. In addition, the CC50 at 2 h in data set [1] was > 100 µM.

As for “GIGKFLKKAKKFGKAFVKILKK-NH2 [MSI-78, Pexiganan]”, in the data set on S. Typhi ATCC 14028s, the “MIC S. Typhi ATCC 14028s” value was found to be 12.5 µM. In addition, the “MIC S. aureus ATCC P8538” value in the data set with S. aureus ATCC P8538 is 6.25 µM. For the same compound, the “MIC E. coli ATCC 35218” value against E. coli ATCC 35218 is 3.12 µM. Also, in the data set on pig erythrocytes, the “% hemolysis (100 μM)” value was 15.2 ± 1.1%. Further, the “MIC Lactobacilli ATCC 25258” value against Lactobacilli ATCC 25258 amounted to 1.56 µM. For the same compound, the “Concentration toxic to RAW 264.7 cells” value with RAW 264.7 cells is 40 µM. For the same compound, the CC50 at 2 h in data set [1] was 43.1 µM.

As to `CC[C@H](C)[C@H](NC(=O)CNC(=O)[C@H](CCCCN)NC(=O)[C@H](CCCCN)NC(=O)[C@H](CCCCN)NC(=O)[C@H](CCCCN)NC(=O)[C@@H](N)CCCCN)C(=O)NCC(=O)N[C@H](Cc1ccccc1)C(=O)N[C@@H](CC(C)C)C(=O)N[C@@H](C)C(=O)N[C@H](Cc1ccccc1)C(=O)NCC(=O)N[C@@H](C)C(=O)N[C@@H](Cc1ccccc1)C(=O)N[C@H](C(=O)N[C@H](C(=O)N[C@@H](CC(C)C)C(=O)N[C@@H](CCCCN)C(=O)N[C@@H](CCCCN)C(=O)N[C@@H](CCCCN)C(=O)N[C@@H](CCCCN)C(N)=O)[C@@H](C)CC)C(C)C` [MSI-Seg-F2F] (H-KKKKKGIG[dF]LA[dF]GAFVILKKKK-NH2), in the data set with S. Typhi ATCC 14028s, the “MIC S. Typhi ATCC 14028s” value is 25 µM (≈ 61.9 µg/mL). In the data set on S. aureus ATCC P8538, the “MIC S. aureus ATCC P8538” value worked out at 12.5 µM (≈ 31 µg/mL). Besides, the “MIC E. coli ATCC 35218” value with E. coli ATCC 35218 came to 12.5 µM (≈ 31 µg/mL). Moreover, the “% hemolysis (100 μM)” value in the data set on pig erythrocytes amounted to 8.1 ± 3.2%. Moreover, the “MIC Lactobacilli ATCC 25258” value against Lactobacilli ATCC 25258 came to 12.5 µM (≈ 31 µg/mL). Moreover, in data set [1], the CC50 at 2 h was > 100 µM.

Turning to KKKKKGIGFLAFGAFVILKKKK-NH2 [MSI-Seg], the “MIC S. Typhi ATCC 14028s” value against S. Typhi ATCC 14028s is 25 µM. For the same compound, the “MIC S. aureus ATCC P8538” value in the data set on S. aureus ATCC P8538 was 12.5 µM. The “MIC E. coli ATCC 35218” value in the data set with E. coli ATCC 35218 came to 12.5 µM. In addition, the “% hemolysis (100 μM)” value with pig erythrocytes is given as 16.6 ± 4.2%. Besides, the “MIC Lactobacilli ATCC 25258” value with Lactobacilli ATCC 25258 was >50 µM. Besides, the CC50 at 2 h in data set [1] was > 100 µM.

A word on the CC50: it is the concentration that lowers cell viability or growth by half.
